Paper PMC5303205, “Comparative studies on the multi-component pharmacokinetics of Aristolochiae Fructus and honey-fried Aristolochiae Fructus extracts after oral administration in rats” (BMC Complementary and Alternative Medicine, 2017)
Where two headings read alike, the source gives them in different places.

Columns and labels:
[1] = Multi-component pharmacokinetics of AAs in rats after oral administration of AF and HAF extracts (HPLC-MS/MS of plasma); set-up: species or system Sprague–Dawley (SD) rats; details: Sprague-Dawley, rat, in vivo
Experimental: An aliquot (100 μl) of rat plasma was spiked with 10.0 μL IS, and vortexed with 300 μL acetic ether for 10 s before the supernatant was transferred into centrifuge tube. The extraction was repeated with 200 μL acetic ether. The combined organic layer was evaporated to dryness under a gentle stream of nitrogen at RT. The residue was resolved in 100 μL methanol and centrifuged at 15,800 × g for 10 min. The supernatant was used for HPLC-MS/MS analysis.
Chromatographic separation was performed by an Acquity C18 column (4.6 × 100 mm,3.5 μm) (Agilent Technologies, USA). The mobile phase was composed of water (containing 10 mM ammonium formate and formic acid, pH 3.0) (solvent A) and ACN (solvent B). The gradient profile of B was: 0–10 min, 35–38%; 10–11 min, 38– 60%; 11–17 min, 60–35%B; 17–18 min, 35%. The flow rate was kept at 0.5 mL/min. The column oven was set at 30 °C and the injection volume was 10 μL.
The mass spectrometer was operated in the positive ion electrospray mode with multiple reaction monitoring (MRM). The optimal MS parameters were set at the following parameters: a desolvation gas temperature of 450 °C, desolvation gas flow of 10 L/min, a nebulizer gas of 40 psi and a capillary voltage of 4000 V. The mass spectrometry conditions of AA I, AA II, AA C, AA D, 7-OH AA I and IS are summarized in Additional file 1: Table S1.
The rats were randomly divided into 6 groups (low, middle and high doses of AF and HAF; n = 6). After a week of acclimation, the animals were fasted for 12 h with free access to water. Then, AF and HAF extracts were administered to the rats. The extracts were suspended in 0.5% CMC–Na solution, and the oral doses (according to AA I in the extracts) were 3.0 mg/kg, 8.0 mg/kg and 15.0 mg/kg, respectively.
Blood samples were collected from the ocular vein using dried heparinized tubes at 0, 0.083, 0.17, 0.33, 0.50, 0.67, 0.83, 1, 2, 4, 6, 8, 10, 12 and 24 h from the start. The animals received fluid replacement (sterile isotonic saline) after every two samplings since the fifth collecting. The samples were then immediately centrifuged at 3100 × g for 10 min. The plasma obtained was frozen and stored at –20 °C until analysis.
All statistical analyses were performed using the SPSS 11.0 software (Chicago, USA). P values <0.05 were considered statistically significant. Pharmacokinetic analysis was performed using the proprietary DAS 3.0 software (Mathematical Pharmacology Professional Committee of China, Shanghai, China).
After the oral administration of AF and HAF extracts, rat plasma samples were prepared and analyzed as described above. Five main AAs can be detected in rat blood with the proposed HPLC-MS/MS method. The mean pharmacokinetic parameters of five AAs in AF and HAF are summarized in Tables 4, 5 and Additional files 5, 6, 7: Tables S4-S6. The maximum concentration (C max) was the experimentally-observed value. The other pharmacokinetic parameters of the five analytes were fitted by DAS 3.0 software.

[2] = Stability of AAs in rat plasma (QC samples, HPLC-MS/MS); assay type: in vitro ADME; details: n = 5; for Short-term stability (RSD/%): fresh rat plasma at room temperature for 24 h before sample preparation; for Post-preparation stability (RSD/%): prepared rat plasma samples at room temperature for 24 h; for Long-term stability (RSD/%): rat plasma stored at –20 °C for 14 days; for Freeze-thaw stability (RSD/%): rat plasma, three freeze-thaw cycles (–20 °C 24 h, thawed at room temperature)
Experimental: The QC samples were assayed under several different conditions to evaluate the stability of AAs in rat plasma. The freeze-thaw stability of the analyte was determined over three freeze-thaw cycles. In each freeze-thaw cycle, the samples were frozen and stored at –20 °C for 24 h, then thawed at room temperature. To evaluate the long-term stability of AAs, the plasma samples were stored at –20 °C for 14 days. For the short-term stability, fresh plasma samples were kept at room temperature for 24 h before the sample preparation. After keeping the samples at room temperature for 24 h, post-preparation stability was tested. Stability was evaluated by comparing the mean concentration of the stored samples with the mean concentration of those prepared freshly. The stability data were acceptable when the bias was within ±15% of the actual value.

[3] = 3 mg/kg, AF extract, low dose (3.0 mg/kg as AA I), analyte dose mg/kg: AA I 3.0, AA II 0.21, AA C 1.42, AA D 1.60, 7-OH AA I 2.33, n = 6
[4] = 3 mg/kg, HAF extract, low dose (3.0 mg/kg as AA I), analyte dose mg/kg: AA I 3.0, AA II 0.26, AA C 1.53, AA D 1.51, 7-OH AA I 2.48, n = 6
[5] = 8 mg/kg, AF extract, mid dose (8.0 mg/kg as AA I), analyte dose mg/kg: AA I 8.0, AA II 0.56, AA C 3.78, AA D 4.26, 7-OH AA I 6.22, n = 6
[6] = 8 mg/kg, HAF extract, mid dose (8.0 mg/kg as AA I), analyte dose mg/kg: AA I 8.0, AA II 0.69, AA C 4.09, AA D 4.03, 7-OH AA I 6.62, n = 6
[7] = 15 mg/kg, AF extract, high dose (15.0 mg/kg as AA I), analyte dose mg/kg: AA I 15.0, AA II 1.05, AA C 7.09, AA D 8.00, 7-OH AA I 11.66, n = 6
[8] = 15 mg/kg, HAF extract, high dose (15.0 mg/kg as AA I), analyte dose mg/kg: AA I 15.0, AA II 1.29, AA C 7.66, AA D 7.56, 7-OH AA I 12.41, n = 6
[9] = high QC conc ng/mL: AA I 1830, AA II 3200, AA C 2980, AA D 3680, 7-OH AA I 3280
[10] = low QC conc ng/mL: AA I 1.83, AA II 8.00, AA C 186.3, AA D 36.8, 7-OH AA I 82.0
[11] = middle QC conc ng/mL: AA I 457.5, AA II 400, AA C 372.5, AA D 460, 7-OH AA I 410

## COc1cccc2c1cc([N+](=O)[O-])c1c(C(=O)O)cc3c(c12)OCO3 [AA I]
[1]; [3]
  AUC(0-inf): 6080 ± 1260 ng·h/mL
  Cmax: 1700 ± 571 ng/mL
  Tmax: 0.5 ± 0.09 h
[1]; 3 mg/kg, AF extract, low dose (3.0 mg/kg as AA I), analyte dose mg/kg: AA I 3.0, AA II 0.21, AA C 1.42, AA D 1.60, 7-OH AA I 2.33, n = 6, read-out: CLz/F (converted)
  CL/F: 9.5 mL/min/kg
[1]; 3 mg/kg, AF extract, low dose (3.0 mg/kg as AA I), analyte dose mg/kg: AA I 3.0, AA II 0.21, AA C 1.42, AA D 1.60, 7-OH AA I 2.33, n = 6, read-out: Vz/F
  Vd/F: 2.85 ± 0.15 L/kg
[1]; 3 mg/kg, AF extract, low dose (3.0 mg/kg as AA I), analyte dose mg/kg: AA I 3.0, AA II 0.21, AA C 1.42, AA D 1.60, 7-OH AA I 2.33, n = 6, read-out: t 1/2z (converted)
  half-life: 3.5 ± 0.5 h
[1]; [4]
  AUC(0-inf): 5230 ± 896 ng·h/mL
  Cmax: 1070 ± 223 ng/mL
  Tmax: 0.39 ± 0.08 h
[1]; 3 mg/kg, HAF extract, low dose (3.0 mg/kg as AA I), analyte dose mg/kg: AA I 3.0, AA II 0.26, AA C 1.53, AA D 1.51, 7-OH AA I 2.48, n = 6, read-out: CLz/F (converted)
  CL/F: 9.83 mL/min/kg
[1]; 3 mg/kg, HAF extract, low dose (3.0 mg/kg as AA I), analyte dose mg/kg: AA I 3.0, AA II 0.26, AA C 1.53, AA D 1.51, 7-OH AA I 2.48, n = 6, read-out: Vz/F
  Vd/F: 2.75 ± 0.24 L/kg
[1]; 3 mg/kg, HAF extract, low dose (3.0 mg/kg as AA I), analyte dose mg/kg: AA I 3.0, AA II 0.26, AA C 1.53, AA D 1.51, 7-OH AA I 2.48, n = 6, read-out: t 1/2z (converted)
  half-life: 3.22 ± 0.46 h
[1]; [5]
  AUC(0-inf): 12800 ± 1860 ng·h/mL
  Cmax: 3820 ± 450 ng/mL
  Tmax: 0.56 ± 0.09 h
[1]; 8 mg/kg, AF extract, mid dose (8.0 mg/kg as AA I), analyte dose mg/kg: AA I 8.0, AA II 0.56, AA C 3.78, AA D 4.26, 7-OH AA I 6.22, n = 6, read-out: CLz/F (converted)
  CL/F: 10.8 mL/min/kg
[1]; 8 mg/kg, AF extract, mid dose (8.0 mg/kg as AA I), analyte dose mg/kg: AA I 8.0, AA II 0.56, AA C 3.78, AA D 4.26, 7-OH AA I 6.22, n = 6, read-out: Vz/F
  Vd/F: 5.4 ± 0.48 L/kg
[1]; 8 mg/kg, AF extract, mid dose (8.0 mg/kg as AA I), analyte dose mg/kg: AA I 8.0, AA II 0.56, AA C 3.78, AA D 4.26, 7-OH AA I 6.22, n = 6, read-out: t 1/2z (converted)
  half-life: 5.58 ± 0.65 h
[1]; [6]
  AUC(0-inf): 8990 ± 1780 ng·h/mL
  Cmax: 2000 ± 313 ng/mL
  Tmax: 0.42 ± 0.08 h
[1]; 8 mg/kg, HAF extract, mid dose (8.0 mg/kg as AA I), analyte dose mg/kg: AA I 8.0, AA II 0.69, AA C 4.09, AA D 4.03, 7-OH AA I 6.62, n = 6, read-out: CLz/F (converted)
  CL/F: 11.3 mL/min/kg
[1]; 8 mg/kg, HAF extract, mid dose (8.0 mg/kg as AA I), analyte dose mg/kg: AA I 8.0, AA II 0.69, AA C 4.09, AA D 4.03, 7-OH AA I 6.62, n = 6, read-out: Vz/F
  Vd/F: 4.58 ± 0.37 L/kg
[1]; 8 mg/kg, HAF extract, mid dose (8.0 mg/kg as AA I), analyte dose mg/kg: AA I 8.0, AA II 0.69, AA C 4.09, AA D 4.03, 7-OH AA I 6.62, n = 6, read-out: t 1/2z (converted)
  half-life: 4.72 ± 0.52 h
[1]; [7]
  AUC(0-inf): 26800 ± 3260 ng·h/mL
  Cmax: 5890 ± 426 ng/mL
  Tmax: 0.69 ± 0.1 h
[1]; 15 mg/kg, AF extract, high dose (15.0 mg/kg as AA I), analyte dose mg/kg: AA I 15.0, AA II 1.05, AA C 7.09, AA D 8.00, 7-OH AA I 11.66, n = 6, read-out: CLz/F (converted)
  CL/F: 14.5 mL/min/kg
[1]; 15 mg/kg, AF extract, high dose (15.0 mg/kg as AA I), analyte dose mg/kg: AA I 15.0, AA II 1.05, AA C 7.09, AA D 8.00, 7-OH AA I 11.66, n = 6, read-out: Vz/F
  Vd/F: 7.13 ± 0.57 L/kg
[1]; 15 mg/kg, AF extract, high dose (15.0 mg/kg as AA I), analyte dose mg/kg: AA I 15.0, AA II 1.05, AA C 7.09, AA D 8.00, 7-OH AA I 11.66, n = 6, read-out: t 1/2z (converted)
  half-life: 5.46 ± 0.53 h
[1]; [8]
  AUC(0-inf): 11800 ± 1770 ng·h/mL
  Cmax: 3470 ± 352 ng/mL
  Tmax: 0.47 ± 0.08 h
[1]; 15 mg/kg, HAF extract, high dose (15.0 mg/kg as AA I), analyte dose mg/kg: AA I 15.0, AA II 1.29, AA C 7.66, AA D 7.56, 7-OH AA I 12.41, n = 6, read-out: CLz/F (converted)
  CL/F: 12 mL/min/kg
[1]; 15 mg/kg, HAF extract, high dose (15.0 mg/kg as AA I), analyte dose mg/kg: AA I 15.0, AA II 1.29, AA C 7.66, AA D 7.56, 7-OH AA I 12.41, n = 6, read-out: Vz/F
  Vd/F: 5.53 ± 0.52 L/kg
[1]; 15 mg/kg, HAF extract, high dose (15.0 mg/kg as AA I), analyte dose mg/kg: AA I 15.0, AA II 1.29, AA C 7.66, AA D 7.56, 7-OH AA I 12.41, n = 6, read-out: t 1/2z (converted)
  half-life: 5.32 ± 0.54 h
[2]; [9]
  Short-term stability (RSD/%): 6.5%
  Post-preparation stability (RSD/%): 4.5%
  Long-term stability (RSD/%): 7.6%
  Freeze-thaw stability (RSD/%): 12.9%
[2]; [10]
  Short-term stability (RSD/%): 0.58%
  Post-preparation stability (RSD/%): 0.65%
  Long-term stability (RSD/%): 0.28%
  Freeze-thaw stability (RSD/%): 1.1%
[2]; [11]
  Short-term stability (RSD/%): 8.7%
  Post-preparation stability (RSD/%): 2.0%
  Long-term stability (RSD/%): 6.9%
  Freeze-thaw stability (RSD/%): 10.3%
